# Where two headings read alike, the source gives them in different places.
# Experiments:
# Assay type in all cases: physicochemical
# [1] = Equilibrium aqueous solubility at 25 °C (HPLC); details: water, 25 ± 1° C.
# Method: As described in Example 5 of the co-pending application PCT/EP2014/059281, the aqueous solubilities of forms HxA and HxB of the present invention and the hemihydrate of Canagliflozin described in WO 2008/069327 A1 were determined by the equilibrium solubility method. Saturated solutions of Canagliflozin, obtained by stirring 50 mg of each crystalline form in 50 mL water were prepared and stirred at 25±1° C. After 60 minutes of stirring, three samples were withdrawn, filtered through 0.45 μm syringe filters and the filtrates were directly analyzed by HPLC.
# Using six concentration points of known Canagliflozin concentrations a calibration line was fitted by linear regression.
# [2] = Equilibrium solubility of Canagliflozin in McIlvaine buffer, FaSSIF and FeSSIF with excipients; details: 37 °C, thermodynamic from solid
# Method: Inhibition of precipitation and supersaturation effects were also evaluated in more biorelevant dissolution media, FaSSIF and FeSSIF, prepared according to Dressman et al. (Dressman et al. Dissolution testing as a prognostic tool for oral drug absorption: immediate release dosage forms. Pharm Res, 1998)). Excipients were used in 1 mg/ml concentration. […] All tests were performed in duplicate.
# [3] = Influence of water activity on physical stability of Canagliflozin; details: samples exposed to 30, 40, 50, 60 RH %, then 50° C. for 14 days
# Method: The influence of water activity on physical stability of Canagliflozin were further tested. Prior storage at stress stability conditions samples were exposed to different relative humidity (30, 40, 50 and 60 RH %). After storage at elevated temperature (50° C.) for 14 days samples were tested for water activity and polymorphic form. It was established that Canagliflozin was physically stable when water activity was≦0.3. Results confirmed that appropriate dryness of the samples is critical for product stability.
# The influence of water activity of the formulation on physical stability of Canagliflozin was further tested. Prior storage at stress stability conditions samples were exposed to different relative humidity (30, 40, 50 and 60 RH %). After storage at elevated temperature (50° C.) for 14 days samples were tested for water activity and polymorphic form. It was established that Canagliflozin was physically stable when water activity was≦0.4. Results confirmed that appropriate dryness of the samples is critical for product stability (see Table 14, showing Examples 2 and 7 as exemplary samples).
# [4] = Equilibrium solubility of Canagliflozin in McIlvaine buffer, FaSSIF and FeSSIF with excipients; details: 37 °C, thermodynamic from solid; remark: listed apart in the source
# [5] = Water activity of excipients, normal and dried; details: for Water activity dry (#): excipient dried for 4 hours at ambient temperature in a vacuum chamber; for Water activity normal (*): excipient exposed to 40% RH for 24 hours at ambient temperature
# Method: The influence of water activity of each excipient on chemical and physical stability of Canagliflozin was further tested.
# In Table 12, the normal (*) excipients mean that they were exposed to 40% RH for 24 hours at ambient temperature; and the dry (#) excipients mean that they were dried for 4 hours at ambient temperature in a vacuum chamber.
# [6] = Precipitation inhibition screening of excipients with nephelometer; details: McIlvaine buffer pH 6.8
# Method: In vitro high-throughput precipitation inhibition screening with nephelometer was performed for different excipients in McIlvaine buffer pH 6.8 at 1%, 0.1%, and 0.01% (w/v) according to the procedure published in Petrusevska et al (Petrusevska et al. Evaluation of light scattering and turbidity microtiter plate-based methods for detection of the excipient-mediated drug precipitation inhibition. Eur J Pharm Biopharm, 2013). The ratio between turbidity signal for each tested concentration of selected excipient with Canagliflozin and plain buffer containing only Canagliflozin were determined.
# [7] = Solubility and dynamic solubility of amorphous Canagliflozin versus hemihydrate; details: 37° C., shaking, HPLC
# Method: Additionally dynamic solubility in water was determined at 0.5 h, 1 h and 24 h time points (37° C., shaking, HPLC determination).
# [8] = Chemical stability in binary mixtures with excipients; details: 1 g + 1 g excipient of Table 9, tablets, 50° C., sealed glass vial, 14 days
# Method: Canagliflozin degradation products were followed by high performance liquid chromatography using the following chromatographic method. Samples were dissolved in a mixture of 60 w/w % acetonitrile in buffer pH=5 (0.77 g of CH3OONH4 in 1 L of water, pH adjusted to pH=5 with acetic acid) to achieve a concentration of about 0.2 mg/ml of Canagliflozin. The sample solution was injected into an UHPLC system with a BEH C18 column (1.7 micrometer particles) using binary gradient elution. Mobile phase A consisted of mixture of 70 w/w % buffer with pH=5 in acetonitrile and mobile phase B consisted of acetonitrile. Gradient elution was performed according to the following program: mobile phase A (%)/time (min): 100%/0 min; 100%/5 min; 14%/[…]; 40%/35 min; 15%/40 min; 15%/45 min. The detector was set to a wavelength of 290 nm and impurities quantitated as area % with no response factors applied. Stability of samples was monitored by exposing them to elevated temperature (50° C.) in a sealed glass vial for 14 days. After storage, samples were analysed and the amounts of degradation products measured by UHPLC. The extent of degradation was determined by subtracting the total amount of degradation products of a […] from the total amount of degradation of a […].
smiles,measurement,setting,value
Cc1ccc([C@@H]2O[C@H](CO)[C@@H](O)[C@H](O)[C@H]2O)cc1Cc1ccc(-c2ccc(F)cc2)s1 [1-(β-D-glucopyranosyl)-4-methyl-3-[5-(4-fluorophenyl)-2-thienylmethyl]benzene],solubility at 60 min,"[1]; 25 °C, thermodynamic from solid, 60 minutes of stirring, read-out: Abs. Solubilities",18 µg/mL
"Cc1ccc([C@@H]2O[C@H](CO)[C@@H](O)[C@H](O)[C@H]2O)cc1Cc1ccc(-c2ccc(F)cc2)s1 [Canagliflozin, 1-(β-D-glucopyranosyl)-4-methyl-3-[5-(4-fluorophenyl)-2-thienylmethyl]benzene]",solubility thermodynamic at 24 h,"[2]; FaSSIF, pH 6.5, aqueous with cosolvent or surfactant or cyclodextrin, with Texapon 1 mg/ml, 24 h, read-out: Equilibrium solubility in FaSSIF pH 6.5",7980 µg/mL
same,solubility thermodynamic at 24 h,"[2]; FaSSIF, pH 6.5, aqueous with cosolvent or surfactant or cyclodextrin, with Texapon + HPMC 603, each 1 mg/ml, 24 h, read-out: Equilibrium solubility in FaSSIF pH 6.5",8480 ± 180 µg/mL
same,solubility thermodynamic at 24 h,"[2]; FeSSIF, pH 5.5, aqueous with cosolvent or surfactant or cyclodextrin, with Texapon 1 mg/ml, 24 h, read-out: Equilibrium solubility in FeSSIF pH 5.5",25000 ± 1340 µg/mL
same,solubility thermodynamic at 24 h,"[2]; FeSSIF, pH 5.5, aqueous with cosolvent or surfactant or cyclodextrin, with Texapon + HPMC 603, each 1 mg/ml, 24 h, read-out: Equilibrium solubility in FeSSIF pH 5.5",27800 ± 2350 µg/mL
same,solubility thermodynamic at 24 h,"[2]; FeSSIF, pH 5.5, fessif, no excipient, 24 h incubation, read-out: Equilibrium solubility in FeSSIF pH 5.5",21000 ± 1030 µg/mL
same,water activity at which Canagliflozin was physically stable,[3]; Example A (non-stoichiometric hydrate),≤ 0.3
same,water activity at which Canagliflozin was physically stable,[3]; Example B (amorphous formulation),≤ 0.4
same,solubility thermodynamic at 24 h,"[4]; FaSSIF, pH 6.5, fassif, no excipient, 24 h incubation, read-out: Equilibrium solubility in FaSSIF pH 6.5",5310 ± 970 µg/mL
same,solubility thermodynamic at 24 h,"[4]; McIlvaine buffer, pH 6.5, aqueous buffer, buffer, no excipient, 24 h incubation, read-out: Equilibrium solubility in McIlvaine buffer pH 6.5",21 ± 1 µg/mL
same,solubility thermodynamic at 24 h,"[4]; McIlvaine buffer, pH 6.5, aqueous with cosolvent or surfactant or cyclodextrin, with HPMC 606 1 mg/ml, 24 h, read-out: Equilibrium solubility in McIlvaine buffer pH 6.5",62 ± 7 µg/mL
same,solubility thermodynamic at 24 h,"[4]; McIlvaine buffer, pH 6.5, aqueous with cosolvent or surfactant or cyclodextrin, with Texapon 1 mg/ml, 24 h, read-out: Equilibrium solubility in McIlvaine buffer pH 6.5",2850 ± 332 µg/mL
same,solubility thermodynamic at 24 h,"[4]; McIlvaine buffer, pH 6.5, aqueous with cosolvent or surfactant or cyclodextrin, with Texapon + HPMC 603, each 1 mg/ml, 24 h, read-out: Equilibrium solubility in McIlvaine buffer pH 6.5",2580 ± 36 µg/mL
OC[C@H]1O[C@@H](O[C@H]2[C@H](O)[C@@H](O)C(O)O[C@@H]2CO)[C@H](O)[C@@H](O)[C@H]1O (stereo partly drawn) [Lactose anhydrous],Water activity dry (#),[5],14.8
same,Water activity normal (*),[5],28.6
CCCCCCCCCCCCCCCCCC(=O)[O-].CCCCCCCCCCCCCCCCCC(=O)[O-].[Mg+2] [Mg stearate],Water activity dry (#),[5],15.9
same,Water activity normal (*),[5],26.6
"CCCCCCCCCCCCOS(=O)(=O)[O-].[Na+] [Texapon, Sodium Lauryl Sulfate]",time Canagliflozin supersaturation was sustained,[6]; excipient at highest concentration tested (1% w/v),10 min
same,rate of canagliflozin dissolution in the presence of excipient,[6]; highest concentration tested,fastest
"Cc1ccc([C@@H]2O[C@H](CO)[C@@H](O)[C@H](O)[C@H]2O)cc1Cc1ccc(-c2ccc(F)cc2)s1 [amorphous Canagliflozin, 1-(β-D-glucopyranosyl)-4-methyl-3-[5-(4-fluorophenyl)-2-thienylmethyl]benzene]",dynamic solubility in water compared to crystalline Canagliflozin hemihydrate,"[7]; 0.5 h, 1 h and 24 h",increased solubility as well as dynamic solubility
same,solubility compared to crystalline Canagliflozin hemihydrate,"[7]; pH 1.2, 4.5 and 6.8",increased solubility
same,degradation products (impurities) in binary mixtures with excipients,[8],no increase in impurities was observed
"Cc1ccc([C@@H]2O[C@H](CO)[C@@H](O)[C@H](O)[C@H]2O)cc1Cc1ccc(-c2ccc(F)cc2)s1 [form HxA, 1-(β-D-glucopyranosyl)-4-methyl-3-[5-(4-fluorophenyl)-2-thienylmethyl]benzene form HxA]",Rel. Solubilities,[1],100%
same,increased aqueous solubility compared to the crystalline hemihydrate of WO 2008/069327 A1,[1],10%
same,Abs. Solubilities,[1]; 60 minutes of stirring,20 µg/mL
"Cc1ccc([C@@H]2O[C@H](CO)[C@@H](O)[C@H](O)[C@H]2O)cc1Cc1ccc(-c2ccc(F)cc2)s1 [form HxB, 1-(β-D-glucopyranosyl)-4-methyl-3-[5-(4-fluorophenyl)-2-thienylmethyl]benzene form HxB]",Rel. Solubilities,[1],100%
same,increased aqueous solubility compared to the crystalline hemihydrate of WO 2008/069327 A1,[1],10%
same,Abs. Solubilities,[1]; 60 minutes of stirring,20 µg/mL
Cc1ccc([C@@H]2O[C@H](CO)[C@@H](O)[C@H](O)[C@H]2O)cc1Cc1ccc(-c2ccc(F)cc2)s1 [hemihydrate of WO 2008/069327 A1 (=Hy0.5)] [1-(β-D-glucopyranosyl)-4-methyl-3-[5-(4-fluorophenyl)-2-thienylmethyl]benzene],Rel. Solubilities,[1],90%
same,degradation products (impurities) in binary mixtures with excipients,[8]; listed as Canagliflozin hemihydrate,"impurities were increased when containing excipients such as Syloid, PEG 6000 and Polyoxyl 40 hydrogenated castor oil"
